The values that follow come from article PMC9249808, “A novel lipidic peptide with potential to promote balanced effector-regulatory T cell responses” (Scientific Reports, 2022).

Experiment [1] deals with Lck. The experiment can be described thus: Kinase profiling, Lck. Format: biochemical. As to conditions: Eurofins KinaseProfiler, [γ-33P-ATP] scintillation, 0.003-10 uM, 2% DMSO, no pre-incubation, Fig. 6c, 6e. The procedure:
(§1) Non-cell-based kinase profiling assays were performed by Eurofins (France). All compounds were prepared to 50 × final assay concentration in 100% DMSO. This working stock of the compound was added to assay wells as the first component in the reaction, followed by the remaining components as detailed in the specific assay protocols below. In the standard KinaseProfiler service, there was no pre-incubation step between the compound and the kinase prior to initiation of the reaction. Control wells contained all components of the reaction, except the compound of interest; however, DMSO (at a final concentration of 2%) was included in these wells to control for solvent effects. […] The reference inhibitors for each kinase are indicated in the methods for each kinase assay. […] Kinase activities were assessed in the presence of compounds at a concentration range of 0.003 -10 uM and the following kinases were tested: c-Src, Lck, Jak1, Jak2, Tyk2, CaMKIV and HPK1 (MAP4K1). Reactions between IK14004, substrates and MgAcetate/[γ^33P-ATP] mixes for each respective kinase were stopped by the addition of phosphoric acid and reaction mixtures spotted on P30 filtermats for scintillation according to the detailed methods available from Eurofins. The activities of Lck and c-Src were also assessed in the presence of the unconjugated components of IK14004, i.e., […] (IK14000) and the dodecanoic acid moiety [(2)Adod]4 (IK00041) and a lipidic peptide containing substituted amino acid residues (IK14DE04).

The subject of another experiment is c-Src. The experiment can be described thus: Kinase profiling, c-Src. The experiment is classed as biochemical. Particulars: Eurofins KinaseProfiler, [γ-33P-ATP] scintillation, 0.003-10 uM, 2% DMSO, no pre-incubation; Fig. 6d (IK14004 at concentrations below 3 µM), Fig. 6e. As to the method:
as §1, with “(IK14000) and the dodecanoic acid moiety [(2)Adod]4 (IK00041) and a lipidic peptide containing substituted amino acid residues (IK14DE04).” left out

The test system of a further experiment is CD3+ T cell cultures. The experiment can be described thus: Cytokine ELISA on supernatants of isolated CD3+ T cell cultures. Format: cell-based, human. As to the method:
CD3^+ T cells were isolated from PBMCs by negative selection using immune-magnetic separation (Stem cell kits), resuspended in complete medium as used for PBMCs at 0.5 × 10^6/mL and plated at a density of 5 × 10^4 per well (100 µL) in 96-well, flat bottom culture plates. CD4^+ and CD8^+ T cell populations were isolated by immunomagnetic separation and resuspended in RPMI-10 at 0.5 × 10^6/mL with a plating density of 0.5 × 10^5 per well. Either the lipidic peptide, IK14004, or IK14000 ([…]) was added to wells at a final volume of 50 µL per well, together with anti-CD3 anti-CD28 coated Dynabeads (ThermoFisher) at a 4:1 cell:bead ratio (1.25 × 10^4/well, 50 µL volume) and cells cultured for 72 h at 37 °C and 5% CO2.
Supernatants were obtained from PBMC and isolated CD3+ T cells cultures to assess production of IL-2, IL-12p70, IL-10 and IFN-γ (ThermoFisher kits) and IL-12p40 (Biolegend). […] ELISA plates were read at 450 nm using an Infinite F50 (Tecan) absorbance reader and Magellan™ reader control and data analysis software. Flow cytometry data was exported as FCS files from Attune™ NxT software and analysed using FlowJo™ software, from which data were tabulated for export to Microsoft Excel. […]
For flow cytometry and ELISA experiments, data from IK14004 and vehicle groups were analysed using parametric statistical procedures. […]
(In general: An ELISA detects its analyte on a solid surface through an enzyme-linked reagent.)

The subject of experiment [2] is Lck. As to conditions: in vitro; read-out: IC50, inhibition of Lck activity; cited from earlier work.
A further experiment deals with IL-2 production. As to conditions: cited from earlier work.
The target in another experiment is T1, HPK1 (MAP4K1) (Homo sapiens, UniProt Q92918).
T1 construct: purchased Eurofins (France), KinaseProfiler service
T1 sequence (Q92918 whole entry): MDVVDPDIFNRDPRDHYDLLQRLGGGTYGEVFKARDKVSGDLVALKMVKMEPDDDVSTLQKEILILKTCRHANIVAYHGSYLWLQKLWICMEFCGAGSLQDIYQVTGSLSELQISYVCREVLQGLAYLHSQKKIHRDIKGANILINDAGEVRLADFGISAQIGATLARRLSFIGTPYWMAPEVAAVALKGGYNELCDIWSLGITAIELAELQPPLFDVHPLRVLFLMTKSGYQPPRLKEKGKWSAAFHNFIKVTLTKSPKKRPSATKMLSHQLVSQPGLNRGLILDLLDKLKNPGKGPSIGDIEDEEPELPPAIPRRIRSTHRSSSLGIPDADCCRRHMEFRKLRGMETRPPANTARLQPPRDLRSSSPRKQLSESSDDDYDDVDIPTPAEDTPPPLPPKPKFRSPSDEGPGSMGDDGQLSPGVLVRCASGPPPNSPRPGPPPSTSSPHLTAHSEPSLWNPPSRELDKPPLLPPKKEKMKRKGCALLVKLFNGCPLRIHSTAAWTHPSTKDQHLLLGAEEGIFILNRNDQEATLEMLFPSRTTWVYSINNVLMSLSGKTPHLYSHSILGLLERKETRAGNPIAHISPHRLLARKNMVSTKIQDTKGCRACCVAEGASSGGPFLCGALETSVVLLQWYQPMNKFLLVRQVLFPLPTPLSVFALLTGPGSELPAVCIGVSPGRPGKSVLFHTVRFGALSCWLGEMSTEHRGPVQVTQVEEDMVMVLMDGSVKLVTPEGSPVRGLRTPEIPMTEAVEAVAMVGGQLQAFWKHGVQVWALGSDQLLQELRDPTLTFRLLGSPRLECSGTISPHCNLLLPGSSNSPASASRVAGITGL
The experiment can be described thus: Kinase profiling, HPK1. Format: biochemical. As to the method:
as §1, with “(IK14000) and the dodecanoic acid moiety [(2)Adod]4 (IK00041) and a lipidic peptide containing substituted amino acid residues (IK14DE04).” left out

The target in a further experiment is T2, CaMKIV (Homo sapiens, UniProt Q16566).
T2 construct: purchased Eurofins (France), KinaseProfiler service
The experiment can be described thus: Kinase profiling, CaMKIV. The experiment is classed as biochemical. The procedure: as §1, with “(IK14000) and the dodecanoic acid moiety [(2)Adod]4 (IK00041) and a lipidic peptide containing substituted amino acid residues (IK14DE04).” left out

The target in another experiment is T3, JAK1 (Homo sapiens, UniProt P23458).
T3 construct: purchased Eurofins (France), KinaseProfiler service
T3 sequence (P23458 whole entry): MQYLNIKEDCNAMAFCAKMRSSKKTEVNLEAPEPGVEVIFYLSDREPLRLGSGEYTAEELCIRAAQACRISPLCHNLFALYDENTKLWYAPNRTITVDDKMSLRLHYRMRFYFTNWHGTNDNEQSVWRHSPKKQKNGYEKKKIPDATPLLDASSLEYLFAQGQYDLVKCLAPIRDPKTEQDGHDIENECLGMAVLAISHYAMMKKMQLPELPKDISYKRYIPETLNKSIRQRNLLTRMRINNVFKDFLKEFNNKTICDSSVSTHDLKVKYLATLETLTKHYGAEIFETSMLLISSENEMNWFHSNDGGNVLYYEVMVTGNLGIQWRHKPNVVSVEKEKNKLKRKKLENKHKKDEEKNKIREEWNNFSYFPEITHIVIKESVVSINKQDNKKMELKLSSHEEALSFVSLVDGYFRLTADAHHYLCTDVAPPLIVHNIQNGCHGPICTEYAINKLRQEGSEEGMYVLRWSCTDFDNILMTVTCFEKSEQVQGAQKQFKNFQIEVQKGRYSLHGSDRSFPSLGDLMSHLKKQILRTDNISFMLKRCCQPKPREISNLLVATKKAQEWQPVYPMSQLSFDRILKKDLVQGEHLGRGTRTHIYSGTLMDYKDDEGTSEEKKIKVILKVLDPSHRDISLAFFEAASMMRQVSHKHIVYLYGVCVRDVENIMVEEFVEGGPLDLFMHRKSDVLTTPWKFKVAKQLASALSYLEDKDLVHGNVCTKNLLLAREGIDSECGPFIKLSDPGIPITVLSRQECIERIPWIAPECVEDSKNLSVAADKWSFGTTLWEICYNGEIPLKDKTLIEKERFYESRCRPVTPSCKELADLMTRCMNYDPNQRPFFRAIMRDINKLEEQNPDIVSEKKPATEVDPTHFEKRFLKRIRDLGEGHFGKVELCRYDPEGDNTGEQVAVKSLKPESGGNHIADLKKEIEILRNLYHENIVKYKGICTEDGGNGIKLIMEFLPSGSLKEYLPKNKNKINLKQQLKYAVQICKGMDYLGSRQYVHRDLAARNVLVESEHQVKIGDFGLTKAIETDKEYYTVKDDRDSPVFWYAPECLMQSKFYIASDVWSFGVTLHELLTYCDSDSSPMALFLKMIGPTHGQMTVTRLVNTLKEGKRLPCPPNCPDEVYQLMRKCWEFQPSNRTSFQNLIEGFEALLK
The experiment is described as follows: Kinase profiling, JAK1. The experiment is classed as biochemical. The procedure:
as §1, with “(IK14000) and the dodecanoic acid moiety [(2)Adod]4 (IK00041) and a lipidic peptide containing substituted amino acid residues (IK14DE04).” left out

The target in another experiment is T4, Tyk2 (Homo sapiens, UniProt P29597).
T4 construct: purchased Eurofins (France), KinaseProfiler service
T4 sequence (P29597 whole entry): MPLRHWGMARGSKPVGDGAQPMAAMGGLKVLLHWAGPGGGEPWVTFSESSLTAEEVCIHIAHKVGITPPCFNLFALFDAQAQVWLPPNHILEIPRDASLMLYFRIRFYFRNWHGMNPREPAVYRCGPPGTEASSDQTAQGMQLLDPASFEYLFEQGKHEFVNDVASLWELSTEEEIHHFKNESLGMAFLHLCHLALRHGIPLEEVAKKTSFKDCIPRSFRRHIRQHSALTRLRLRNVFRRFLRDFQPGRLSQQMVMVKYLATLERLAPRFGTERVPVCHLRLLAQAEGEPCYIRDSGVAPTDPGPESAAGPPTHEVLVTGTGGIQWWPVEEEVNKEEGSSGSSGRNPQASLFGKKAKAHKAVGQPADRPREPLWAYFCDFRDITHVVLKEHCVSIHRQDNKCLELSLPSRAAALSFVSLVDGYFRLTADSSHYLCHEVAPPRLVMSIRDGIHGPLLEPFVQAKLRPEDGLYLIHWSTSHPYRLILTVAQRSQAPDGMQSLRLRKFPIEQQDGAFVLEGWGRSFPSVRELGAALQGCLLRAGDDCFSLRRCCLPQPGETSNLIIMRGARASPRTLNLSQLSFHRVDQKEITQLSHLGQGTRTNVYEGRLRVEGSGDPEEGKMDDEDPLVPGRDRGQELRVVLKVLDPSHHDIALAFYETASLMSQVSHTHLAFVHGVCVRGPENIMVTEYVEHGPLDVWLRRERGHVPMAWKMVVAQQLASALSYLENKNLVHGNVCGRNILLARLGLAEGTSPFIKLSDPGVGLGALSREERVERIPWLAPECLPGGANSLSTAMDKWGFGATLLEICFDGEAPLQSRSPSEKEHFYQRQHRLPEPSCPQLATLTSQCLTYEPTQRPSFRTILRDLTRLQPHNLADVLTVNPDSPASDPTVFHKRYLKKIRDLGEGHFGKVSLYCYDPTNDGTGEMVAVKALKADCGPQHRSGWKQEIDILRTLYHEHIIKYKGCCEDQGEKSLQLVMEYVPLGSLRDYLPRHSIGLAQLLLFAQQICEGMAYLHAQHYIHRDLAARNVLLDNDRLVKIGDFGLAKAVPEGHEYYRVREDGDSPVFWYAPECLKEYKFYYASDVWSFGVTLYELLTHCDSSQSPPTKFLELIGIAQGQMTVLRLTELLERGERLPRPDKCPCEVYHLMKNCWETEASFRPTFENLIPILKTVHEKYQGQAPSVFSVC
The experiment is described as follows: Kinase profiling, Tyk2. Format: biochemical. Particulars: non-cell-based, [γ-33P-ATP], 2% DMSO, no pre-incubation, Fig. 6i. As to the method: as §1, with “(IK14000) and the dodecanoic acid moiety [(2)Adod]4 (IK00041) and a lipidic peptide containing substituted amino acid residues (IK14DE04).” left out

For another experiment, the system named is CD40L expression. Particulars: 48 h, in vitro; cited from earlier work. An excerpt: An integrated understanding of how IL-2 and TCR co-stimulatory signals combine to control homeostasis in distinct tissue locations is lacking. The effects of IK14004 on cytokine production are shown in the Schematic (Fig. 7) together with putative effects on kinase-mediated signalling pathways involved in production of these cytokines. Maturation of DCs involves CD40L-CD40 interactions dependent upon T helper expression of CD40L[21],[22].

Setting [3] is: blank wells, baseline 0% kinase activity remaining.

Non-standard residues stand in square brackets, D forms with d. Residues, ends and D or L forms follow the SMILES beside them. Gly(decyl) = CCCCCCCCCC[C@H](N)C(=O)O

For [(2)Adod]4 [IK00041], the Lck activity entry with Lck [1] is “neither IK14000 nor IK00041 had an effect”.
As for DSEAENPLYD [IK14DE04], the Lck activity entry with Lck [1] is reported as “abolished the effects of IK14004”. Also, the c-Src activity result in the experiment on c-Src is on record as “abolished the effects of IK14004”.
The term IC50 denotes the midpoint of a concentration-inhibition curve. In the case of `COc1cc(-c2nn([C@H]3CC[C@H](N4CCN(C(C)=O)CC4)CC3)c3ncnc(N)c23)ccc1NC(=O)c1cc2ccccc2n1C` [A-770041], the “IL-2 in supernatant of CD3+ T cell cultures, A-770041” value with CD3+ T cell cultures (0.1 µM in 0.1% DMSO, anti-CD3/anti-CD28, 72 h, ELISA, 7 experimental replicates, paired t-test **P < 0.01, Fig. 6a) is “induced IL-2 production”. For the same molecule, the “IL-2 level relative to IK14004” value in the experiment on CD3+ T cell cultures (A-770041 0.1 µM versus IK14004 (0.16 uM), 72 h, Fig. 6a vs 1f) is given as “much greater level than in the presence of IK14004”. Also, the 50% inhibitory concentration (IC50) is 147 nM in the experiment with Lck [2] and 80 nM with IL-2 production (read-out: IC50, inhibition of IL-2 production, in vitro). Besides, the “IL-2 production, whole blood” value in the experiment with IL-2 production (heparinised whole blood exposed to anti-CD3 plus PMA, ref Stachlewitz and colleagues [66]) is on record as “inhibition of IL-2 production”.
In the case of `CN[C@@H]1C[C@H]2O[C@@](C)([C@@H]1OC)n1c3ccccc3c3c4c(c5c6ccccc6n2c5c31)C(=O)NC4` [staurosporine, reference compound], the “HPK1 activity, reference inhibitor” value on HPK1 (MAP4K1) (setting [3]) is recorded as “abolished kinase activity”. Also, the “CaMKIV activity, reference inhibitor” value on CaMKIV (setting [3]) was “abolished kinase activity”. Moreover, the “JAK1 activity, reference inhibitor” value at JAK1 (setting [3]) is recorded as “abolished kinase activity”.
`CCCCCCCCCC[C@H](NC(=O)[C@H](CCCCCCCCCC)NC(=O)[C@H](CCCCCCCCCC)NC(=O)[C@H](CCCCCCCCCC)NC(=O)[C@H](CCCNC(=N)N)NC(=O)[C@H](Cc1ccc(O)cc1)NC(=O)[C@H](CC(C)C)NC(=O)[C@@H]1CCCN1C(=O)[C@H](CC(N)=O)NC(=O)[C@H](CCCCN)NC(=O)[C@H](C)NC(=O)[C@H](CCCCN)NC(=O)[C@H](CO)NC(=O)[C@@H](N)CCCNC(=N)N)C(N)=O` [IK14004] (H-RSKAKNPLYR[Gly(decyl)][Gly(decyl)][Gly(decyl)][Gly(decyl)]-NH2): the IC50 at HPK1 (MAP4K1) (non-cell-based, [γ-33P-ATP], 2% DMSO, no pre-incubation, Fig. 6f) is around 1000 nM; against CaMKIV (non-cell-based, [γ-33P-ATP], 2% DMSO, no pre-incubation, Fig. 6h), 3 µM; against JAK1 (non-cell-based, [γ-33P-ATP], 2% DMSO, no pre-incubation, Fig. 6i) it was 3 µM; against Tyk2, 1000 nM.

B1: daclizumab: a humanised anti-CD25 mAb (antibody, chains of the INN, looked up, V domains shown)
VH: QVQLVQSGAEVKKPGSSVKVSCKASGYTFTSYRMHWVRQAPGQGLEWIGYINPSTGYTEYNQKFKDKATITADESTNTAYMELSSLRSEDTAVYYCARGGGVFDYWGQGTLVTVSS
VL: DIQMTQSPSTLSASVGDRVTITCSASSSISYMHWYQQKPGKAPKLLIYTTSNLASGVPARFSGSGSGTEFTLTISSLQPDDFATYYCHQRSTYPLTFGQGTKVEVK
Regarding B1, in the experiment on CD40L expression, the “CD40L expression at later time points” value is on record as “inhibitable”.
